These results are taken from patent US20030148970A1, “Methods for specifically inhibiting histone deacetylase-4” (priority 2001, published 2003).

In one series the target is HDAC 2 (Homo sapiens, UniProt Q92769). Kind of series: histone deacetylase enzyme assay, HDAC 2. Format: biochemical. On the procedure:
(§1) For the deacetylase assay, 20,000 cpm of an [^3H]-metabolically-labeled acetylated histone was used as a substrate. Histones were incubated with cloned recombinant human HDAC enzymes at 37° C. […] All assay conditions were pre-determined to be certain that each reaction was linear. Reactions were stopped by adding acetic acid (0.04 M final concentration) and HCl (250 mM, final concentration). The mixture was extracted with ethyl acetate, and the released [3H]-acetic acid was quantified by liquid scintillation counting. For the inhibition studies, HDAC enzyme was preincubated with test compounds for 30 minutes at 4° C. prior to the start of the enzymatic assay. IC50 values for HDAC enzyme inhibitors were identified with dose response curves for each individual compound and, thereby, obtaining a value for the concentration of inhibitor that produced fifty percent of the maximal inhibition.

In the next series the target is T1, human HDAC-3 (Homo sapiens, UniProt O15379).
T1 construct: made in house; host or cells: insect cells (baculovirus expression system)
T1 sequence (O15379 whole entry): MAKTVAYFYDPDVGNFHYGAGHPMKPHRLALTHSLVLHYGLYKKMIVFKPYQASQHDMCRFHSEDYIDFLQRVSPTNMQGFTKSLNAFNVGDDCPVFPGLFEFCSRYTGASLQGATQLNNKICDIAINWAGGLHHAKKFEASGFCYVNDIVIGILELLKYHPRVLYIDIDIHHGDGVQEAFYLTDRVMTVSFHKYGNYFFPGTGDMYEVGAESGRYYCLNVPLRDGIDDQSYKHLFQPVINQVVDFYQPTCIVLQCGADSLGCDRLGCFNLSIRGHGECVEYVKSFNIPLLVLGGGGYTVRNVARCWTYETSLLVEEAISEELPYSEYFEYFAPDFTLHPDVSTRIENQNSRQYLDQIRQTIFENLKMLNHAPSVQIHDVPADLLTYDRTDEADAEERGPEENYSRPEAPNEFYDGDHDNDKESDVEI
The series can be described thus: histone deacetylase enzyme assay, HDAC-3. It counts as biochemical. On the procedure:
(§2) The other HDAC isotypes, HDAC-3 and HDAC-4, were purified directly on an anti-Flag affinity column.
as §1

In a further series the target is T2, human HDAC-4 (Homo sapiens, UniProt P56524).
T2 construct: Flag; made in house; host or cells: human embryonic kidney 293 cells (calcium phosphate transfection)
T2 sequence (P56524 whole entry): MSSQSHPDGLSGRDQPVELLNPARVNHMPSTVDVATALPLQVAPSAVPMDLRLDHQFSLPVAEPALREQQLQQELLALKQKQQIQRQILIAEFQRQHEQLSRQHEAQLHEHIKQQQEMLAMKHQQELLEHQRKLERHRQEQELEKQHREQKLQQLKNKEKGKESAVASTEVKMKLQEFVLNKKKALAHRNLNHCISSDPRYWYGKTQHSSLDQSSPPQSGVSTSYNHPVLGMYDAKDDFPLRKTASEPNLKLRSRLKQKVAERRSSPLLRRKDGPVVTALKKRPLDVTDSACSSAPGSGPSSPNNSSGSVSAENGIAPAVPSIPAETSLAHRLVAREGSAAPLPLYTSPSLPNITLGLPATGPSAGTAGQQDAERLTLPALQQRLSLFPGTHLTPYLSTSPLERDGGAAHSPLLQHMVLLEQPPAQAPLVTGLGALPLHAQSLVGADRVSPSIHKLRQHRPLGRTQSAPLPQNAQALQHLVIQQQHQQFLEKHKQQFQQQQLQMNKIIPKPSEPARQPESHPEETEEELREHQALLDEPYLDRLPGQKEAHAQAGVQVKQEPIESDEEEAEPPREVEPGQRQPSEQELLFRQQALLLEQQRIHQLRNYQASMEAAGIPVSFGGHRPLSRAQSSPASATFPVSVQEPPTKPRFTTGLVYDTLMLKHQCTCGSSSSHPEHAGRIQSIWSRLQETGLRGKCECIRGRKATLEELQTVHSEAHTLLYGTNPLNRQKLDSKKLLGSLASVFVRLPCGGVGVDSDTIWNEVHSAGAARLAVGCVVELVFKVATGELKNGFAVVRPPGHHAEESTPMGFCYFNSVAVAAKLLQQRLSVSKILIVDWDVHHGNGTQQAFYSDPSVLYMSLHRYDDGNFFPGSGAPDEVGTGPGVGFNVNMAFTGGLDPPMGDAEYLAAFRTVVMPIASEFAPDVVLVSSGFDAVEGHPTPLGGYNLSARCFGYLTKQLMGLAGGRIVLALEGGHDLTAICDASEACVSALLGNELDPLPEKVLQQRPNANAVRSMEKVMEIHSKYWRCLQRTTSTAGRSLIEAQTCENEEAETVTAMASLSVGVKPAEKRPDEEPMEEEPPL
The series can be described thus: histone deacetylase enzyme assay, HDAC-4. It counts as biochemical. The protocol:
Flag-tagged human HDAC-4 enzyme was produced in human embronic kidney 293 cells after transformation by the calcium phosphate precipitation method. Briefly, 293 cells were cultured in Dulbecco's Modified Eagle Medium (DMEM) containing 10% fetal bovine serum and antibiotics. Plasmid DNA encoding Flag-tagged human HDAC-4 was precipitated by ethanol and resuspend in sterile water. DNA-calcium precipitates, formed by mixing DNA, calcium choloride and 2×HEPES-buffered saline solution, were left on 293 cells for 12-16 hours. Cells were return to serum-contained DMEM medium and harvested at 48 hour post transfection for purification of Flag-tagged HDAC-4 enzyme.
as §2, §1

Another series is described as follows: cell cycle arrest. Format: cell-based.
Another series deals with p21. The series can be described thus: p21 induction by small molecules. It counts as cell-based.
For series [1], the system named is acetylated histone H-4 in T24 human bladder cancer cells. Kind of series: inhibition of HDAC activity in whole cells (acetylated histone H-4 Western). Format: cell-based. Conditions: 16 hours. On the procedure: T24 human bladder cancer cells (ATCC, Manassas, Va.) growing in culture were incubated with test compounds for 16 hours. Histones were extracted from the cells by standard procedures (see e.g. Yoshida et al., supra) after the culture period. Twenty μg total core histone protein was loaded onto SDS/PAGE and transferred to nitrocellulose membranes, which were then reacted with polyclonal antibody specific for acetylated histone H-4 (Upstate Biotech Inc., Lake Placid, […].). Horse Radish Peroxidase conjugated secondary antibody was used at a dilution of 1:5000 to detect primary antibody binding. The secondary antibody binding was visualized by use of the Enhanced chemiluminescence (ECL) detection kit (Amersham-Pharmacia Biotech., Inc., Piscataway, N.J.). After exposure to film, acetylated H-4 signal was quantitated by densitometry.

For the next series, the target named is T3, human HDAC-6 (Homo sapiens, UniProt Q9UBN7).
T3 construct: made in house; host or cells: insect cells (baculovirus expression system)
T3 sequence (Q9UBN7 1-1215): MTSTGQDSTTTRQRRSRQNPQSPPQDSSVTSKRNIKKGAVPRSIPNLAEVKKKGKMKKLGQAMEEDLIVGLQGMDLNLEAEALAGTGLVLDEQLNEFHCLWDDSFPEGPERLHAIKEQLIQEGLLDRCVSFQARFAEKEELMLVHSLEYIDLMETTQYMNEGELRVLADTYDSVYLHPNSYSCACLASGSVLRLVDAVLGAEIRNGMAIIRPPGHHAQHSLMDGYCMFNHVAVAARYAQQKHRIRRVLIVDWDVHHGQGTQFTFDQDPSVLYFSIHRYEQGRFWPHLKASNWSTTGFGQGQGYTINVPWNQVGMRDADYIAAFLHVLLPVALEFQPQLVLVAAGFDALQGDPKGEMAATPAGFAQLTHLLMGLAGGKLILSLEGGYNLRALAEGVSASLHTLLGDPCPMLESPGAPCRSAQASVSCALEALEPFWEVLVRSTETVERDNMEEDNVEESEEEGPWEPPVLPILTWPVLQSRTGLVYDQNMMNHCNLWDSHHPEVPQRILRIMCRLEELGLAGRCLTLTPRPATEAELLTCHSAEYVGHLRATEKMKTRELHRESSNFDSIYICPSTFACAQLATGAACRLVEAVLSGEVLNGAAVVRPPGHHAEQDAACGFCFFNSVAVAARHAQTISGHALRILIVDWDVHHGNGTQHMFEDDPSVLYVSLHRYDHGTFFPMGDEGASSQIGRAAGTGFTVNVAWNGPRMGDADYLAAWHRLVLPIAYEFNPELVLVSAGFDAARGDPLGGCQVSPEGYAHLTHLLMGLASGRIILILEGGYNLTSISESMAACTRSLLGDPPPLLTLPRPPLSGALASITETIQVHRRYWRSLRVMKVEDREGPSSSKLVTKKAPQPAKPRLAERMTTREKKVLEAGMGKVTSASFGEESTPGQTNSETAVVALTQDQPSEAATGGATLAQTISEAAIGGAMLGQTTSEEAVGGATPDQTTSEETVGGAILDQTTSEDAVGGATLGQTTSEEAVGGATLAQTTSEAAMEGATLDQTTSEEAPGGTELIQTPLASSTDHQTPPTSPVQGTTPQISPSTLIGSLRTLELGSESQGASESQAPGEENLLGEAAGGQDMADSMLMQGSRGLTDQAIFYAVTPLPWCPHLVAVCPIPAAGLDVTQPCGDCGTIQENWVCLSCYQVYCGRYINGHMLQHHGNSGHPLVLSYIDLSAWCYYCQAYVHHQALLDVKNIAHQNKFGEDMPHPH
Kind of series: histone deacetylase enzyme assay, HDAC-6. Format: biochemical. On the procedure: as §2, §1

In series [2] the test system is human colon cancer HCT116 cells. The series can be described thus: MTT assay of cell proliferation and cytotoxicity. Format: cell-based. Conditions: HCT-116, 48 hours. On the procedure: Four thousand five hundred (4,500) human colon cancer HCT116 cells (ATCC, Manassas, Va. were used in an MTT (3-[4,5-dimethylthiazol-2-yl]-2,5 diphenyl tetrazolium bromide) assay to quantitatively determine cell proliferation and cytotoxicity. Typically, HCT116 cells were plated into each well of the 96-well tissue culture plate and left overnight to attach to the plate. Compounds at various concentrations (1 uM, 5 uM and 25 uM, in DMSO) were added in triplicate into the culture media (final DMSO concentration 1%) and incubated for 48 hours. MTT solution (obtained from Sigma as powder) was added and incubated with the cells for 4 hours at 37° C. in incubator with 5% CO2. During the incubation, viable cells convert MTT to a water-insoluble formazan dye. Solubilizing buffer (50% N,N-dimethylformamide, 20% SDS, pH 4.7) was added to cells and incubate for overnight at 37C in incubator with 5% CO2. Solubilized dye was quantitated by colorimetric reading at […] using a reference of […].

Another series deals with HDAC-4 mRNA. The series can be described thus: Northern blot of HDAC-4 mRNA in A549 cells. Conditions: escalating doses (50 nM or 100 nM), 24 hours. It counts as cell-based, human. On the procedure: Human cancer A549 cells were treated with escalating doses of AS1, AS2 or MM2 oligos for 24 hours. Total RNAs were harvested for Northern analysis.
Briefly, human A549 and/or T24 human bladder carcinoma cells were seeded in 10 cm tissue culture dishes one day prior to oligonucleotide treatment. The cell lines were obtained from the American Type Culture Collection (ATCC) (Manassas, Va.) and were grown under the recommended culture conditions. Before the addition of the oligonucleotides, cells were washed with PBS (phosphate buffered saline). Next, lipofectin transfection reagent (GIBCO BRL Mississauga, Ontario, Calif.), at a concentration of 6.25 μg/ml, was added to serum free OPTIMEM medium (GIBCO BRL, Rockville, Md.), which was then added to the cells. The oligonucleotides to be screened were then added directly to the cells (i.e., one oligonucleotide per plate of cells). Mismatched oligonucleotides were used as controls. The same concentration of oligonucleotide (e.g., 50 nM) was used per plate of cells for each oligonucleotide tested.
Cells were harvested, and total RNAs were analyzed by Northern blot analysis. Briefly, total RNA was extracted using RNeasy miniprep columns (QIAGEN). Ten to twenty μg of total RNA was run on a formaldehyde-containing 1% agarose gel with 0.5 M sodium phosphate (pH 7.0) as the buffer system. […]

The subject of the next series is human HDAC-4 protein. The series can be described thus: Western blot of HDAC-4 protein in A549 cells. Conditions: 50 nM, 48 hours. Format: cell-based. The protocol:
Human cancer A549 cells were treated with AS1, AS2 or MM2 oligos for 48 hours. Whole cell lysates were analyzed by Western blotting using antibodies specific against human HDAC4.
OSDN treatment conditions were as previously described.
Cells were lysed in buffer containing 1% Triton X-100, 0.5% sodium deoxycholate, 5 mM EDTA, 25 mM Tris-HCl, pH 7.5, plus protease inhibitors. Total protein was quantified by the protein assay reagent from Bio-Rad (Hercules, Calif.). 100 ug of total protein was analyzed by SDS-PAGE. Next, total protein was transferred onto a PVDF membrane and probed with various HDAC-specific primary antibodies. Rabbit anti-HDAC-1 (H-51), anti-HDAC-2 (H-54) antibodies (Santa Cruz Biotechnologies, Santa Cruz, Calif.) were used at 1:500 dilution. Rabbit anti-HDAC-3 antibody (Sigma, St. Louis, Mo.) was used at a dilution of 1:1000. Anti-HDAC-4 antibody was prepared as previously described (Wang, S. H. et al., (1999) Mol. Cell. Biol. 19:7816-27), and was used at a dilution of 1:1000. Anti-HDAC-6 antibody was raised by immunizing rabbits with a GST fusion protein containing a fragment of HDAC-6 protein (amino acid #990 to #1216, GenBank Accession No. AAD29048). Rabbit antiserum was tested and found only to react specifically to the human HDAC-6 isoform. HDAC-6 antiserum was used at 1:500 dilution in Western blots to detect HDAC-6 in total cell lysates. […]
For orientation: A western blot detects proteins with antibodies after separation by electrophoresis.

In another series the test system is Human A549 cells. The series can be described thus: cDNA array analysis of gene transcription. Format: cell-based. Conditions: A549, 50 nM, two days. The source says: Fold change on transcriptions was compared to that of HDAC-4 mismatch oligo (MM2) treated cells;

d = 2'-deoxy (DNA); m = 2'-O-methyl

Sequence of HDAC 2 (Q92769 whole entry): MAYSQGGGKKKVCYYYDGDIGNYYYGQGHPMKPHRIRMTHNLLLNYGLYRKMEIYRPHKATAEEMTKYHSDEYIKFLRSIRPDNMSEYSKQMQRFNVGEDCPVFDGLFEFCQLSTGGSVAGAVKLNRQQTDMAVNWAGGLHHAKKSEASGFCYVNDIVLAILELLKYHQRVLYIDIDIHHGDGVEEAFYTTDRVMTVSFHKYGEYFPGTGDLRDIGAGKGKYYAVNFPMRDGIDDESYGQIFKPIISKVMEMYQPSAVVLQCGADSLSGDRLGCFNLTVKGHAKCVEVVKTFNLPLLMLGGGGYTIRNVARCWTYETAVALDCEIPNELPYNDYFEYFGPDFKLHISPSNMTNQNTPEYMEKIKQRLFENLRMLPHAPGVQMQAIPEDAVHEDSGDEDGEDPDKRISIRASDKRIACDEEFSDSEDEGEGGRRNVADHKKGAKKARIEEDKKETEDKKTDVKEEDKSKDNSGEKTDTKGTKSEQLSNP

The term IC50 denotes the midpoint of a concentration-inhibition curve. Low readings indicate higher potency, high ones lower potency. On to `Nc1ccccc1NC(=O)CCCCCCC(=O)c1ccc(-c2ccccc2)nc1` [MG 385 9], for which the IC50 at HDAC 2 was 8 µM; against human HDAC-3, 18 µM; against human HDAC-4 it was 13 µM; against human HDAC-6, greater than 50 µM; in [2], 5 µM. Besides, the “cell cycle arrest EC” value in the series “cell cycle arrest” was determined as 3 µM. Also, the p21 induction in the series on p21 turned out to be 5 µM. Further, in series [1], the “effective concentration for histone H4 acetylation” value was found to be 5 µM.
In the case of “HDAC-4 AS1: 5′-GCTGCCTGCCGTGCCCACCC-3′, antisense to human HDAC4 5′-UTR, AB006626 (sugars from the 5' end m4 d12 m4, all phosphorothioate, methylation of C and T or U not given here)”, in the series with HDAC-4 mRNA, the “expression of HDAC-4 mRNA (HDAC4 expression at RNA level)” value is reported as “can inbibit HDAC4 expression at RNA level in a dose-dependent manner”. Besides, the “expression of HDAC-4 protein” value with human HDAC-4 protein is listed as “can inbibit HDAC4 expression at protein level”. Also, in the series with Human A549 cells (vs HDAC-4 mismatch oligo (MM2)), the “fold change, CDK4” value is recorded as −3 fold; the “fold change, Egr-1” value is reported as 3 fold; the “fold change, GADD45” value stood at 3 fold; the “fold change, GADD153” value was 6 fold. In the series on Human A549 cells (vs HDAC-4 mismatch oligo (MM2)), the “fold change, IL-15” value amounted to 4 fold; the “fold change, IRF” value is listed as 2 fold; the “fold change, Notch-4” value was −3 fold; the “fold change, PLK” value is given as −4 fold. For the same compound, in the series with Human A549 cells (vs HDAC-4 mismatch oligo (MM2)), the “fold change, basic FGF” value came out at 2 fold; the “fold change, cyclin A2” value is reported as −3 fold; the “fold change, cyclin B1” value is −3 fold; the “fold change, p21” value came to 4 fold. Also, the “fold change, topo II α” value in the series with Human A549 cells (vs HDAC-4 mismatch oligo (MM2)) is listed as −5 fold. Moreover, the “number of genes with altered expression” value in the series on Human A549 cells (out of 588 genes) is on record as 39 genes.
Regarding “HDAC4 AS2: 5′-TACAGTCCATGCAACCTCCA-3′, antisense to human HDAC4 3′-UTR, AB006626 (sugars from the 5' end m4 d12 m4, all phosphorothioate, methylation of C and T or U not given here)”, the “expression of HDAC-4 mRNA (HDAC4 expression at RNA level)” value with HDAC-4 mRNA is on record as “can inbibit HDAC4 expression at RNA level in a dose-dependent manner”. Besides, the “expression of HDAC-4 protein” value in the series with human HDAC-4 protein is “can inbibit HDAC4 expression at protein level”.
